Tests used:
Type in all cases: cell-based, human
Trip10 promoter [1] = assay: Reactivation of inactivated Trip10 promoter by 5-aza-2′-deoxycytidine and 17β-estradiol (EGFP in SC6 cells); details: me_Trip10 DNA transfected SC6 cells
Method: The obtained photographs were analyzed via an image analyzing software Scion Image. Briefly, the photographs were divided into several regions by the Scion Image software, in which the EGFP signal in a region visually observed as a black region was defined as 0, and the EGFP signal in a region that was visually observed to have the strongest fluorescence was defined as 255. Thereafter, the EGFP intensity was obtained by summing up the EGFP signals in all the regions, followed by dividing by the total area of said regions. […] The transfection-treated SC6 cells, which were harvested two days after the third time of transfection according to the procedures set forth in the section, entitled “2. […] From the second time of medium change (Day 4), the screening medium was further supplemented with 10 ng/mL 17β-estradiol. Expression of EGFP in the SC6 cells was observed using an inverted fluorescence microscope prior to making the medium change, and photographs were recorded using a digital camera connected to the inverted fluorescence microscope.

SC6 cells = assay: Growth of SC6 cells in medium with 5-aza-2′-deoxycytidine (cytotoxicity); details: screening medium with 25 μM 5-aza-2′-deoxycytidine
Method: Transfection of SC6 cells with me_Trip10 DNA,” of the above Example 4, were plated into each well of 6-well plates (1×10^4 cells/2 mL screening medium/well), followed by cultivation overnight in an incubator (37° C., 95% O2/5% CO2) to permit cell attachment. 10 mM 5-aza-2′-deoxycytidine (dissolved in DMSO) was subsequently added into each well to reach a final concentration of 25 μM (Day 0). Thereafter, medium changes were performed every two days with fresh screening medium supplemented with 25 μM 5-aza-2′-deoxycytidine. From the second time of medium change (Day 4), the screening medium was further supplemented with 10 ng/mL 17β-estradiol. Expression of EGFP in the SC6 cells was observed using an inverted fluorescence microscope prior to making the medium change, and photographs were recorded using a digital camera connected to the inverted fluorescence microscope.

Trip10 promoter [2] = assay: Effect of 17β-estradiol upon the Trip10 promoter against DNA methylation (EGFP in SC6 cells); details: 10 ng/mL 17β-estradiol before; for EGFP intensity compared to 0 hr: during and after transfection with me_Trip10 DNA
Method: The obtained photographs were analyzed via an image analyzing software Scion Image. Briefly, the photographs were divided into several regions by the Scion Image software, in which the EGFP signal in a region visually observed as a black region was defined as 0, and the EGFP signal in a region that was visually observed to have the strongest fluorescence was defined as 255. Thereafter, the EGFP intensity was obtained by summing up the EGFP signals in all the regions, followed by dividing by the total area of said regions. Finally, the EGFP intensity at 0 hr was defined as 100%, and the EFGP intensity percentages of the EGFP intensities at other time points relative to that at 0 hr were calculated.
First, a proper amount of 17β-estradiol was dissolved in alcohol to form a stock solution having a concentration of 10 mg/mL. The SC6 cells as obtained in the above Example 3 were plated into each well of 6-well plates (1×10^5 cells/2 mL screening medium/well), followed by cultivation overnight in an incubator (37° C., […]/5% CO2) to permit cell attachment. […] After cultivation at 37° C. for 24 hours, the SC6 cells were transfected with 0.4 μg of single-stranded me_Trip10 DNA according to the transfection treatment as described in the section, entitled “2. Transfection of SC6 cells with me_Trip10 DNA” of the above Example 4, except that the growth medium was supplemented with 10 ng/mL 17β-estradiol and was added into each well until a final volume of 1 mL was reached.
The first time at which the liquid in each well was added to reach 1 mL was defined as Hour 0. Expression of EGFP in the SC6 cells was observed using an inverted fluorescence microscope at 0 hr, 24 hrs, 72 hrs and 120 hrs, respectively, and photographs were recorded using a digital camera connected to the inverted fluorescence microscope.

| SMILES | EGFP intensity compared to Day 2 (100%) (Trip10 promoter [1]; Day 4, 25 μM 5-aza-2′-deoxycytidine alone) | reactivation of the Trip10 promoter / reversal of its methylation (Trip10 promoter [1]) | cytotoxicity (SC6 cells) | methylation of Trip10 promoter induced by me_Trip10 DNA (Trip10 promoter [2]; during and after transfection) | EGFP intensity compared to 0 hr (Trip10 promoter [2]; 72 hrs) | EGFP intensity compared to 0 hr (Trip10 promoter [2]; other time points (24 hrs, 120 hrs)) |
| --- | --- | --- | --- | --- | --- | --- |
| Nc1ncn([C@H]2C[C@H](O)[C@@H](CO)O2)c(=O)n1 [5-aza-2′-deoxycytidine] | over 100% | insufficient to reactivate the Trip10 promoter | no cytotoxicity |  |  |  |
| C[C@]12CC[C@@H]3c4ccc(O)cc4CC[C@H]3[C@@H]1CC[C@@H]2O [17β-estradiol] |  |  |  | could be prevented from methylation | about 150% | around 100% |

— patent US20110091875A1, “THREE-COMPONENT GENE EXPRESSION REPORTING SYSTEM FOR MAMMALIAN CELLS AND APPLICATIONS OF THE SAME” (National Chung Cheng University, priority 2009, published 2011)
